From patent US6461997B1, “Triazole sulfones having herbicidal activity” (Monsanto Technology LLC, priority 1999, dated 2002)

What was measured:
[1] = system: CHEAL (common lambsquarters); experiment: Pre-emergence herbicidal activity, warm season; assay type: in vivo, Chenopodium album; settings: GR80 = lowest tested rate (300, 100, 30, 10 g/ha) with 80% or greater inhibition; approx. 14 days after treating; 30/21° C.
How it was run: (§1)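 GR80 values derive from percent inhibition relative to untreated plants, read roughly 14 days after sowing and pre-emergence soil-surface treatment (compound in 50:50 acetone/water; rates typically 10, 30, 100, 300 g/ha). Warm-season weeds grew at 30/21° C day/night, cool-season ones at 18/13° C; an asterisk marks activity without reaching 80% at the highest rate.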

[2] = system: CONAR (field bindweed); experiment: Pre-emergence herbicidal activity, warm season; assay type: in vivo, Convolvulus arvensis; settings: GR80 = lowest tested rate (300, 100, 30, 10 g/ha) with 80% or greater inhibition; approx. 14 days after treating; 30/21° C.
Method: (§2) Tables 5 to 8 summarize results of tests conducted as described below to determine the pre-emergence herbicidal activity, in the form of a GR80 value, of illustrative compounds of this invention. […] Compounds of the invention were typically applied at rates of 300, 100, 30, and 10 g/ha. Where herbicidal activity was evident but 80% inhibition was not achieved at the highest rate tested, an asterisk (*) is shown in the following tables.
(§3) The pre-emergence tests were conducted by the following procedure. Topsoil was sieved to pass through a 1.27 cm screen. Fertilizer was added to the topsoil and the mixture was then sterilized by heating. The topsoil mixture was placed in a pot and compacted to a depth of 1.0 to 1.25 cm from the top of the pot. Seeds of each of several monocotyledonous and dicotyledonous annual plant species were placed on top of the soil. Additional soil was subsequently placed over the seeds to level-fill the pot. A known amount of each test compound dissolved or suspended in an appropriate organic solvent was diluted with a 50:50 mix of acetone and water and applied to the surface of the soil. After treatment the plants were placed in a greenhouse where they received 0.64 cm of overhead irrigation. All subsequent watering consisted of a light overhead mist and/or subirrigation as needed for germination and growth. Tables 5 and 6 below relate to warm season plant species which were placed after pre-emergence treatment in a greenhouse with a 30/21° C. day/night temperature regime. Tables 7 and 8 below relates to cool season plant species placed after pre-emergence treatment in a greenhouse or growth chamber with an 18/13° C. day/night temperature regime.
(§4) Approximately 14 days after planting and treating, the plants were observed and herbicidal efficacy recorded as percent inhibition by comparison with untreated plants.
(§5) The plant species usually regarded as weeds which were utilized in the tests are identified in the tables below according to the following legend, in which “d” indicates a dicotyledonous species and “m” a monocotyledonous species. All monocotyledonous species included in the tests herein are grasses.

[3] = system: POROL (common purslane); experiment: Pre-emergence herbicidal activity, warm season; assay type: in vivo, Portulaca oleracea; settings: GR80 = lowest tested rate (300, 100, 30, 10 g/ha) with 80% or greater inhibition; approx. 14 days after treating; 30/21° C.
How it was run: as §1

[4] = system: BRAPP (broadleaf signalgrass); experiment: Pre-emergence herbicidal activity, warm season; assay type: in vivo, Brachiaria platyphylla; settings: GR80 = lowest tested rate (300, 100, 30, 10 g/ha) with 80% or greater inhibition; approx. 14 days after treating; 30/21° C.
How it was run: as §1

[5] = system: GALAP (catchweed bedstraw); experiment: Pre-emergence herbicidal activity, cool season; assay type: in vivo, Galium aparine; settings: lowest tested rate with 80% or greater inhibition; rates 300, 100, 30, 10 g/ha; about 14 days
How it was run: as §1

[6] = system: POLCO (wild buckwheat); experiment: Pre-emergence herbicidal activity, cool season; assay type: in vivo, Polygonum convolvulus; settings: lowest tested rate with 80% or greater inhibition; rates 300, 100, 30, 10 g/ha; about 14 days
How it was run: (§6)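 Under 18/13 °C (ALOMY, POLCO) or 30/21 °C (PANMI, DIGSA) day/night, pre-emergence soil-surface treatments at 300, 100, 30 and 10 g/ha were evaluated after roughly 14 days. GR80 reflects percent inhibition relative to untreated plants.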

[7] = system: SINAR (wild mustard); experiment: Pre-emergence herbicidal activity, cool season; assay type: in vivo, Sinapis arvensis; settings: lowest tested rate with 80% or greater inhibition; rates 300, 100, 30, 10 g/ha; about 14 days
How it was run: as §1

[8] = system: VERPE (creeping speedwell); experiment: Pre-emergence herbicidal activity, cool season; assay type: in vivo, Veronica persicaria; settings: lowest tested rate with 80% or greater inhibition; rates 300, 100, 30, 10 g/ha; about 14 days
How it was run: as §1

[9] = system: SASKR (russian thistle); experiment: Pre-emergence herbicidal activity, cool season; assay type: in vivo, Salsola kali; settings: lowest tested rate with 80% or greater inhibition; rates 300, 100, 30, 10 g/ha; about 14 days
How it was run: as §1

[10] = system: STEME (common chickweed); experiment: Pre-emergence herbicidal activity, cool season; assay type: in vivo, Stellaria media; settings: lowest tested rate with 80% or greater inhibition; rates 300, 100, 30, 10 g/ha; about 14 days
How it was run: as §1

[11] = system: LAMPU (purple deadnettle); experiment: Pre-emergence herbicidal activity, cool season; assay type: in vivo, Lamium purpureum; settings: lowest tested rate with 80% or greater inhibition; rates 300, 100, 30, 10 g/ha; about 14 days
How it was run: as §1

[12] = system: SETVI (green foxtail); experiment: Pre-emergence herbicidal activity, cool season; assay type: in vivo, Setaria viridis; settings: GR80 = lowest tested rate (300, 100, 30, 10 g/ha) with 80% or greater inhibition; approx. 14 days after treating; 18/13° C.
How it was run: as §1

[13] = system: AVEFA (wild oat); experiment: Pre-emergence herbicidal activity, cool season; assay type: in vivo, Avena fatua; settings: GR80 = lowest tested rate (300, 100, 30, 10 g/ha) with 80% or greater inhibition; approx. 14 days after treating; 18/13° C.
Method: as §2, §3, §4, §5

[14] = system: AGSST (creeping bentgrass); experiment: Pre-emergence herbicidal activity, cool season; assay type: in vivo, Agrostis stolonifera; settings: GR80 = lowest tested rate (300, 100, 30, 10 g/ha) with 80% or greater inhibition; approx. 14 days after treating; 18/13° C.
How it was run: as §1

[15] = system: ECHCG (barnyardgrass); experiment: Pre-emergence herbicidal activity, warm season; assay type: in vivo, Echinochloa crus-galli; settings: GR80 = lowest tested rate (300, 100, 30, 10 g/ha) with 80% or greater inhibition; approx. 14 days after treating; 30/21° C.
How it was run: as §1

[16] = system: PANMI (wild proso millet); experiment: Pre-emergence herbicidal activity, warm season; assay type: in vivo, Panicum miliaceum; settings: GR80 = lowest tested rate (300, 100, 30, 10 g/ha) with 80% or greater inhibition; approx. 14 days after treating; 30/21° C.
How it was run: as §6

[17] = system: SORHA (johnsongrass (seedling)); experiment: Pre-emergence herbicidal activity, warm season; assay type: in vivo, Sorghum halepense; settings: GR80 = lowest tested rate (300, 100, 30, 10 g/ha) with 80% or greater inhibition; approx. 14 days after treating; 30/21° C.
How it was run: as §1

[18] = system: SETFA (giant foxtail); experiment: Pre-emergence herbicidal activity, warm season; assay type: in vivo, Setaria faberi; settings: GR80 = lowest tested rate (300, 100, 30, 10 g/ha) with 80% or greater inhibition; approx. 14 days after treating; 30/21° C.
How it was run: as §1

[19] = system: PANDI (fall panicum); experiment: Pre-emergence herbicidal activity, warm season; assay type: in vivo, Panicum dichotomiflorum; settings: GR80 = lowest tested rate (300, 100, 30, 10 g/ha) with 80% or greater inhibition; approx. 14 days after treating; 30/21° C.
Method: as §2, §3, §4, §5

[20] = system: BROTE (downy brome); experiment: Pre-emergence herbicidal activity, cool season; assay type: in vivo, Bromus tectorum; settings: GR80 = lowest tested rate (300, 100, 30, 10 g/ha) with 80% or greater inhibition; approx. 14 days after treating; 18/13° C.
Method: as §2, §3, §4, §5

| SMILES | Pre-emergence activity (GR80) CHEAL [1] | Pre-emergence activity (GR80) CONAR [2] | Pre-emergence activity (GR80) POROL [3] | Pre-emergence activity (GR80) BRAPP [4] | Pre-emergence activity GR80, GALAP [5] | Pre-emergence activity GR80, POLCO [6] | Pre-emergence activity GR80, SINAR [7] | Pre-emergence activity GR80, VERPE [8] | Pre-emergence activity GR80, SASKR [9] | Pre-emergence activity GR80, STEME [10] | Pre-emergence activity GR80, LAMPU [11] | Pre-emergence activity (GR80) SETVI [12] | Pre-emergence activity (GR80) AVEFA [13] | Pre-emergence activity (GR80) AGSST [14] | Pre-emergence activity (GR80) ECHCG [15] | Pre-emergence activity (GR80) PANMI [16] | Pre-emergence activity (GR80) SORHA [17] | Pre-emergence activity (GR80) SETFA [18] | Pre-emergence activity (GR80) PANDI [19] | Pre-emergence activity (GR80) BROTE [20] |
| --- | --- | --- | --- | --- | --- | --- | --- | --- | --- | --- | --- | --- | --- | --- | --- | --- | --- | --- | --- | --- |
| O=C(N1CCCC1)n1cnc(S(=O)(=O)C(F)F)n1 [Example 24] | 300 g/ha | 300 g/ha | 100 g/ha | 100 g/ha | [empty] | [empty] | [empty] | [empty] | [empty] | [empty] | [empty] | – | – | – | – | – | – | – | – | – |
| CN(C)C(=O)n1cnc(S(=O)(=O)C(F)F)n1 [Example 26] | – | – | – | – | 300 g/ha | 300 g/ha | [empty] | 300 g/ha | 300 g/ha | [empty] | 300 g/ha | 300 g/ha | 300 g/ha | 30 g/ha | – | – | – | – | – | – |
| COCCN(C)C(=O)n1cnc(S(=O)(=O)C(F)(F)Br)n1 [Example 40] | – | – | – | – | [empty] | [empty] | 100 g/ha | 100 g/ha | 300 g/ha | 300 g/ha | [empty] | – | – | 30 g/ha | 300 g/ha | 300 g/ha | 300 g/ha | 300 g/ha | 300 g/ha | 100 g/ha |
